The target of assay [1] is T1, Melanocortin receptor 5 (Homo sapiens, UniProt P33032). In words: Signal transduction efficacy in cAMP assay in the CHO cells expressing human melanocortin receptor 5. Type of assay: functional, cell-based.
Assay [2] has as its target T1, Melanocortin receptor 5. In words: Increase in intracellular cAMP in CHO cells expressing human melanocortin receptor 5. It counts as functional, cell-based.
In assay [3] the target is Melanocortin receptor 3 (Homo sapiens, UniProt P41968).
Description: Binding affinity against human melanocortin receptor 3 (hMC3R) (concentration of the peptide at 50% specific binding)
The target of assay [4] is Melanocortin receptor 4 (Homo sapiens, UniProt P32245).
Description: Binding affinity against human melanocortin receptor 4 (hMC4R) (concentration of the peptide at 50% specific binding)
Assay [5] deals with T1, Melanocortin receptor 5.
Description: Binding affinity against human melanocortin receptor 5 (hMC5R) (concentration of the peptide at 50% specific binding)

Peptide text beside a SMILES is read from it.

Sequence of Melanocortin receptor 4 (P32245 whole entry): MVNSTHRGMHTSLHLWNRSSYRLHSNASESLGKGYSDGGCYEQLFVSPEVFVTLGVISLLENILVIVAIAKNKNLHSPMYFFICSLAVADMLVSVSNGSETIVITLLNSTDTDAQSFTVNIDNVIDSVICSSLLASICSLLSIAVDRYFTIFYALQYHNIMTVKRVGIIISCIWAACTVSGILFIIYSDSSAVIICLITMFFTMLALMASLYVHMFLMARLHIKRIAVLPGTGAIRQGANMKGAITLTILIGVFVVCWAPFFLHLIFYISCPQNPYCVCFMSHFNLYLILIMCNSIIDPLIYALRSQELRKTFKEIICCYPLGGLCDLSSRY
Sequence of Melanocortin receptor 3 (P41968 whole entry): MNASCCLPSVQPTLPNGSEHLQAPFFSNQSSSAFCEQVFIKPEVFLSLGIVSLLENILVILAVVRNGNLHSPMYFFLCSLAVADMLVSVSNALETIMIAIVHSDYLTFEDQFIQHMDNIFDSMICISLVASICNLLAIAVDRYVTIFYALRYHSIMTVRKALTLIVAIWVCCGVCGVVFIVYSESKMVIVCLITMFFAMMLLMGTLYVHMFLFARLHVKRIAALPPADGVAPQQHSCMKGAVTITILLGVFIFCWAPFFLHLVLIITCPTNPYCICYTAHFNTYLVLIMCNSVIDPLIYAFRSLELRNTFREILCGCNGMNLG
T1 sequence (P33032 whole entry): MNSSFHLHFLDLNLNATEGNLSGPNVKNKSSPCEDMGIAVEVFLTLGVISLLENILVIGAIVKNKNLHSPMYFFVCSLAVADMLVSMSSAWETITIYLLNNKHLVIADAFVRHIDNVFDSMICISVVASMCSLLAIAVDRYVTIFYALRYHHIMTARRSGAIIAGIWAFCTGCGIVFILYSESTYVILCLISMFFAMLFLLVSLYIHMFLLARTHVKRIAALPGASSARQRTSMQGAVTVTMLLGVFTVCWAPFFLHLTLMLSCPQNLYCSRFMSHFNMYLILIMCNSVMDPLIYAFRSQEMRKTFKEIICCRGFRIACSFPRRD

The compound `N=C(N)NCCC[C@@H]1NC(=O)[C@H](Cc2ccc3ccccc3c2)NC(=O)CCC(=O)NCC[C@H](C(N)=O)NC(=O)[C@@H](Cc2c[nH]c3ccccc23)NC1=O` displayed an Activation at 5 µM at 5nM in assay [1] of 13%.

The term EC50 denotes the concentration that produces a half-maximal response. High values mean weaker potency, low ones greater potency. Usually Ki stands for a measure of affinity in units of concentration, obtained from inhibition or displacement. A higher Ki goes with a looser hold on the target. In turn, `N=C(N)NCCC[C@@H]1NC(=O)[C@@H](Cc2ccc3ccccc3c2)NC(=O)[C@H](Cc2c[nH]cn2)NC(=O)CCC(=O)NC[C@@H](C(N)=O)NC(=O)[C@H](Cc2c[nH]c3ccccc23)NC1=O` returned an EC50 in assay [2] of 210 nM. The Ki in assay [3] was 29 nM; in assay [4], 0.26 nM; in assay [5], 65 nM.

`N=C(N)NCCC[C@@H]1NC(=O)[C@@H](Cc2ccc3ccccc3c2)NC(=O)[C@@H](N)CC(=O)NCCCC[C@@H](C(N)=O)NC(=O)[C@H](Cc2c[nH]c3ccccc23)NC1=O` showed a concentration giving a half-maximal response (EC50) in assay [2] of 200 nM. Further, the Ki in assay [3] was 420 nM; in assay [4] it was 4 nM; in assay [5] it was 24 nM.

In assay [2] (cho), `CCC1CC(=O)N[C@H](Cc2ccc3ccccc3c2)C(=O)N[C@@H](CCCN=C(N)N)C(=O)N[C@@H](Cc2c[nH]c3ccccc23)C(=O)N[C@H](C(N)=O)CCCCNC1=O` (stereo in doubt; 17) had an EC50 of 240 nM. For the same compound, the results for the Ki in assay [3], in assay [4] and in assay [5] were 120 nM, 0.58 nM and 140 nM, respectively.

Take `CC(=O)N[C@H]1CC(=O)NCCCC[C@@H](C(N)=O)NC(=O)[C@H](Cc2c[nH]c3ccccc23)NC(=O)[C@H](CCCNC(=N)N)NC(=O)[C@@H](Cc2ccc3ccccc3c2)NC1=O`: the response in assay [2] was half-maximal at 1000 nM (EC50). Further, the Ki came to 190 nM in assay [3], 4.3 nM in assay [4] and 720 nM in assay [5].

On to `N=C(N)NCCC[C@@H]1NC(=O)[C@@H](Cc2ccc3ccccc3c2)NC(=O)[C@H](Cc2c[nH]cn2)NC(=O)CCC(=O)NCCCC[C@@H](C(N)=O)NC(=O)[C@H](Cc2c[nH]c3ccccc23)NC1=O`, for which the 50% effective concentration (EC50) in assay [2] is 170 nM. The Ki came to 47 nM in assay [3], 0.88 nM in assay [4] and 150 nM in assay [5].

For `CC(=O)N[C@H]1CSSC[C@@H](C(=O)N2CCC[C@H]2C(=O)N2CCC[C@H]2C(=O)N[C@@H](CCCCN)C(=O)N[C@@H](CC(=O)O)C(N)=O)NC(=O)CNC(=O)[C@H](Cc2c[nH]c3ccccc23)NC(=O)[C@H](CCCN=C(N)N)NC(=O)[C@@H](Cc2ccc(Cl)c(Cl)c2)NC(=O)[C@H](Cc2c[nH]cn2)NC(=O)[C@H](CCC(=O)O)NC1=O`, in assay [2], the EC50 turned out to be 73 nM. Moreover, the Ki in assay [3] turned out to be 20 nM; in assay [4] it was 2.2 nM; in assay [5], 22 nM.

Regarding `N=C(N)NCCC[C@@H]1NC(=O)[C@@H](Cc2ccc3ccccc3c2)NC(=O)CCC(=O)NCCCC[C@H](C(N)=O)NC(=O)[C@@H](Cc2c[nH]c3ccccc23)NC1=O`, the Activation at 5 µM at 5nM in assay [1] stood at 0%. Moreover, the figures for the inhibition constant (Ki) in assay [3], in assay [4] and in assay [5] were 5900 nM, 1300 nM and 4900 nM, respectively.

Turning to `N=C(N)NCCC[C@@H]1NC(=O)[C@@H](Cc2ccc3ccccc3c2)NC(=O)CCC(=O)NCC[C@@H](C(N)=O)NC(=O)[C@H](Cc2c[nH]c3ccccc23)NC1=O`, the figures for the Ki in assay [3], in assay [4] and in assay [5] were 3000 nM, 58 nM and 2700 nM, respectively.

`N=C(N)NCCC[C@@H]1NC(=O)[C@@H](Cc2ccc3ccccc3c2)NC(=O)CCC(=O)NCCCC[C@H](C(N)=O)NC(=O)[C@H](Cc2c[nH]c3ccccc23)NC1=O` showed an Activation at 5 µM at 5nM in assay [1] of 7%. Moreover, the inhibition constant (Ki) in assay [3] amounted to 5900 nM; in assay [4], 3800 nM; in assay [5], 4900 nM.

Regarding `N=C(N)NCCC[C@@H]1NC(=O)[C@@H](Cc2ccc3ccccc3c2)NCC(=O)CC[C@@H](C(N)=O)NC(=O)[C@H](Cc2c[nH]c3ccccc23)NC1=O`, the Ki in assay [3] is 5900 nM; in assay [4] it was 960 nM; in assay [5], 5000 nM.

In turn, `CC(=O)N[C@H]1CSSC[C@@H](C(N)=O)NC(=O)CNC(=O)[C@H](Cc2c[nH]c3ccccc23)NC(=O)[C@H](CCCN=C(N)N)NC(=O)[C@@H](Cc2ccc3ccccc3c2)NC(=O)[C@H](Cc2c[nH]cn2)NC(=O)[C@H](CCC(=O)O)NC1=O` registered an EC50 in assay [2] (cho) of 0.22 nM. For the same compound, the Ki in assay [3] came to 2.6 nM; in assay [4], 0.57 nM; in assay [5], 0.39 nM.

`CCC1CC(=O)N[C@H](Cc2ccc3ccccc3c2)C(=O)N[C@@H](CCCN=C(N)N)C(=O)N[C@@H](Cc2c[nH]c3ccccc23)C(=O)N[C@H](C(N)=O)CCCCNC1=O` (stereo in doubt; 18) registered an EC50 in assay [2] (cho) of 220 nM. Moreover, the Ki in assay [3] came out at 240 nM; in assay [4], 1.5 nM; in assay [5] it was 400 nM.

Regarding `N=C(N)NCCC[C@@H]1NC(=O)[C@H](Cc2ccc3ccccc3c2)NC(=O)CCC(=O)NC2CCC(C(N)=O)N2C(=O)[C@@H](Cc2c[nH]c3ccccc23)NC1=O` (stereo not given in full), the Activation at 5 µM at 5nM in assay [1] came out at 3%. Moreover, the Ki in assay [3] stood at 3000 nM; in assay [4] it was 600 nM; in assay [5], 2500 nM.

On to `N=C(N)NCCC[C@@H]1NC(=O)[C@@H](Cc2ccc3ccccc3c2)NC(=O)CCC(=O)NCCC[C@@H](C(N)=O)NC(=O)[C@H](Cc2c[nH]c3ccccc23)NC1=O`, for which a half-maximal response in assay [2] (EC50) required 300 nM. Moreover, the inhibition constant Ki in assay [3] turned out to be 56 nM; in assay [4], 0.37 nM; in assay [5], 130 nM.

What is called Inhibition is the change of the read-out against control, counted positive when it falls. Turning to `N=C(N)NCCC[C@@H]1NC(=O)[C@@H](Cc2ccc3ccccc3c2)NCC(=O)CC[C@H](C(N)=O)NC(=O)[C@@H](Cc2c[nH]c3ccccc23)NC1=O`, in assay [1], the Inhibition at 10nM worked out at 1%.

The compound `N=C(N)NCCC[C@@H]1NC(=O)[C@@H](Cc2ccc3ccccc3c2)NC(=O)[C@H](Cc2cnc[nH]2)NC(=O)[C@@H](N)CC(=O)NCCCC[C@@H](C(N)=O)NC(=O)[C@H](Cc2c[nH]c3ccccc23)NC1=O` showed an EC50 in assay [2] of 18 nM. The Ki was determined as 14 nM in assay [3], 1.6 nM in assay [4] and 18 nM in assay [5].

`N=C(N)NCCC[C@@H]1NC(=O)[C@@H](Cc2ccc3ccccc3c2)NC(=O)CCC(=O)NC[C@@H](C(N)=O)NC(=O)[C@H](Cc2c[nH]c3ccccc23)NC1=O` had a 50% effective concentration (EC50) in assay [2] (cho) of over 5000 nM. In addition, the Ki in assay [3] is 1500 nM; in assay [4] it was 110 nM; in assay [5], 4800 nM.

Regarding `CC(=O)N[C@H]1CSSC[C@@H](C(=O)N2CCC[C@H]2C(=O)N2CCC[C@H]2C(=O)N[C@@H](CCCCN)C(=O)N[C@@H](CC(=O)O)C(N)=O)NC(=O)CNC(=O)[C@H](Cc2c[nH]c3ccccc23)NC(=O)[C@H](CCCNC(=N)N)NC(=O)[C@@H](Cc2ccc3ccccc3c2)NC(=O)[C@H](Cc2c[nH]cn2)NC(=O)[C@H](CCC(=O)O)NC1=O` (HELM PEPTIDE1{[ac].C.E.H.[O=C([C@@H](Cc1ccc2ccccc2c1)N[*:1])[*:2]].R.W.G.C.P.P.K.D.[am]}$PEPTIDE1,PEPTIDE1,2:R3-9:R3$$$V2.0), the EC50 in assay [2] was determined as 42 nM. Further, the results for the Ki in assay [3], in assay [4] and in assay [5] were 25 nM, 1.5 nM and 16 nM, respectively.

For `N=C(N)NCCC[C@@H]1NC(=O)[C@@H](Cc2ccc3ccccc3c2)NC(=O)CCC(=O)NCCCC[C@@H](C(N)=O)NC(=O)[C@H](Cc2c[nH]c3ccccc23)NC1=O`, a half-maximal response in assay [2] (EC50) required 530 nM. Further, the Ki in assay [3] turned out to be 150 nM; in assay [4], 0.5 nM; in assay [5], 540 nM.

In turn, `N=C(N)NCCC[C@@H]1NC(=O)[C@@H](Cc2ccc3ccccc3c2)NC(=O)[C@H](Cc2c[nH]cn2)NCC(=O)CC[C@@H](C(N)=O)NC(=O)[C@H](Cc2c[nH]c3ccccc23)NC1=O` yielded an EC50 in assay [2] (cho) of over 5000 nM. Moreover, the inhibitory constant (Ki) in assay [3] worked out at 2900 nM; in assay [4] it was 420 nM; in assay [5], 2400 nM.

In assay [1], `N=C(N)NCCC[C@H]1NC(=O)[C@@H](Cc2ccc3ccccc3c2)NC(=O)CCC(=O)NCCCC[C@H](C(N)=O)NC(=O)[C@@H](Cc2c[nH]c3ccccc23)NC1=O` had an Activation at 5 µM at 5nM of 5%. Further, the Ki in assay [3] was found to be 5900 nM; in assay [4], 3700 nM; in assay [5], 7000 nM.
